Experiments:
K562 = assay: Concentration required for inhibitory activity was evaluated against human leukemic K562 cell line; assay type: functional, cell-based
L1210 = assay: Inhibitory activity against L1210 murine leukemic cell line after 48 hr of exposure to compound; assay type: functional, cell-based; details: Mus musculus, L1210, 48 h

Row | IC50 (L1210) | Compound | Concentration (K562)
1 | 9.64 µM | Cn1cc(NC(=O)c2cc(NC(=O)c3cc(NC=O)cn3C)cn2C)cc1C(=O)NCCC(=N)N | 12 µM
2 | 7.96 µM | Cn1cc(NC(=O)c2cc(NC(=O)c3cc(NC(=O)[C@@H](N)CS)cn3C)cn2C)cc1C(=O)NCCC(=N)N | 10 µM

Source: ChEMBL document CHEMBL1133029, “Synthesis of hybrid distamycin-cysteine labeled with 99mTc: a model for a novel class of cancer imaging agents” (Bioorg Med Chem Lett, 2000)
